Measurements published in article PMC8218751, “Visualizing Borrelia burgdorferi Infection Using a Small-Molecule Imaging Probe” (Journal of Clinical Microbiology, 2021).

Tested on: B. burgdorferi
Assay: Fixed or denatured B. burgdorferi imaging, flagellin costaining and CLEM
Format: cell-based, Borrelia burgdorferi
Description: Bacterial cultures in logarithmic phase were washed and resuspended in phosphate-buffered saline (PBS). Suspension was added to a positively charged slide, and an equal volume of 3:1 methanol-acetic acid was added to the suspension for 5 min. Slides were washed with 0.01% Tween 20/PBS (PBS-T) followed by PBS. Ten percent nonfat dry milk/PBS blocking solution was added for 45 min. Slides were washed with PBS and incubated for 45 min with 1:500 flagellin antibody (Rockland 200-401-C14) diluted in 1% nonfat dry milk/PBS. Slides were washed with PBS-T and then incubated for 30 min with FITC-conjugated anti-rabbit (Invitrogen catalog number A11008; 1:500 dilution), containing 10 μM HS-198. […].
Correlative light electron microscopy (CLEM) was performed by Shannon Modla and Jeff Caplan at the bioimaging center of the Delaware Biotechnology Institute. Cells were attached to an Ibidi μ-dish containing an imprinted 500-μm cell location grid using 4% paraformaldehyde (PFA) for 20 min. Cells were then incubated with 10 μM HS-198 for 10 min followed by a PBS wash. PBS filled the dish to the top for transport to the Delaware Institute for further processing. The cells were then imaged using Zeiss 880 Airyscan. […]

`Cc1nn(-c2ccc(C(=O)N(C)C)c(NCCCOCCOCCOCCOCCOCCCNCc3ccc(C(=C\C=C4/N(CCCCS(=O)(=O)O)c5ccccc5C4(C)C)/C=C/C4=[N+](CCCCS(=O)(=O)[O-])c5ccccc5C4(C)C)cc3)c2)c2c1C(=O)CC(C)(C)C2` [HS-198] was tested. Which “Localization within the spirochete” value (10 μM, flagellin antibody costaining, CLEM) did it give?
The value was “accumulated inside the protoplasmic cylinder”.

And the “Staining of denatured spirochetes” value (heat denaturation (5 min at 90°C or 15 min at 50°C) or alcohol fixation (2:1 ethanol), data not shown)?
The value was “capable of staining spirochetes”.
